Measurements reported in patent US10966426B2, “Herbicidal compositions comprising phenylpyrimidines” (BASF SE, priority 2016, dated 2021).

Columns and labels:
Assay type in all cases: in vivo
Avena fatua = test: greenhouse pre-emergence treatment, AVEFA; settings: Avena fatua, 480 h, 20 DAT, AVEFA, flufenacet SC 500 g/l solo 62.5 gai/ha, read-out: % activity
In short: (§1)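 Damage rated on 0 to 100 scale (0 = normal growth, 100 = no emergence or total above-ground kill) after 2-4 weeks at species-dependent 10-25° C or 20-35° C. Seeds sown per species in loamy sand, ~3.0% humus, treated right after sowing with aqueous spray of single actives or 10% emulsion-concentrate mixtures, then hooded; additive expectation by Colby.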

Ambrosia elatior [1] = test: greenhouse pre-emergence treatment, AMBEL; settings: Ambrosia artemisiifolia, 480 h, 20 DAT, AMBEL
In short: as §1

Poa annua = test: greenhouse post-emergence treatment, POAAN; settings: Poa annua, 480 h, 20 DAT, flufenacet solo 31.25 gai/ha
In short: (§2)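 Seeds sown per species in pots of loamy sand; seedlings either grown in place or transplanted days before treatment. Post-emergence spray of water-based liquor at 3–15 cm height. Injury rated 0–100 over 2 to 4 weeks.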

Papaver rhoeas = test: greenhouse post-emergence treatment, PAPRH; settings: Papaver rhoeas, 480 h, PAPRH, 20 DAT, solo flufenacet (SC 500 g/l) 250 gai/ha
In short: (§3)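 Foliar application to greenhouse-grown plants 3–15 cm tall in humus-containing loamy sand; response assessed on a 0–100 scale after 2–4 weeks, with Colby's E=X+Y−(X·Y/100) as the additive expectation.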

Matricaria chamomilla = test: greenhouse post-emergence treatment, MATCH; settings: Matricaria chamomilla, sc, 480 h, MATCH, 20 DAT
In short: as §3

Setaria viridis = test: greenhouse post-emergence treatment, SETVI; settings: Setaria viridis, 480 h, 20 DAT; for inhibition at 500000 µg/mL (stock): sc, SETVI
In short: (§4)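 Seeds sown per species in loamy sand substrate (about 3.0% humus); some raised separately and transplanted shortly before treatment. Treatments applied in water post-emergence, plants held at 10-25° C. or 20-35° C. by species, then scored after 2 to 4 weeks, where 100 means total kill and 0 no damage.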

Echinocloa crus-galli = test: greenhouse post-emergence treatment, ECHCG; settings: Echinochloa crus-galli, 480 h, 20 DAT, flufenacet solo 31.25 gai/ha
In short: as §3

Digitaria sanguinalis = test: greenhouse post-emergence treatment, DIGSA; settings: Digitaria sanguinalis, 480 h, 20 DAT, read-out: % activity
In short: as §4

Bromus sterilis = test: greenhouse post-emergence treatment, BROST; settings: Bromus sterilis, 480 h, 20 DAT; for inhibition at 500000 µg/mL (stock): sc, BROST
In short: as §4

Brachiaria decumbens = test: greenhouse post-emergence treatment, BRADC; settings: Urochloa decumbens, 480 h, 20 DAT; for inhibition at 500000 µg/mL (stock): sc, BRADC
In short: as §2

Ambrosia elatior [2] = test: greenhouse post-emergence treatment, AMBEL; settings: Ambrosia artemisiifolia, 480 h, 20 DAT
In short: as §2

[3] = solo flufenacet (SC 500 g/l) 31.25 gai/ha
[4] = solo flufenacet (SC 500 g/l) 62.5 gai/ha
[5] = solo flufenacet (SC 500 g/l) 125 gai/ha
[6] = solo flufenacet (SC 500 g/l) 250 gai/ha

`CC(C)N(C(=O)COc1nnc(C(F)(F)F)s1)c1ccc(F)cc1` [flufenacet] was tested, and the inhibition at 62.5 g/ha (Avena fatua) was 60%, the percent weed control (herbicidal activity, 0-100 scale) at 31.25 g/ha (Ambrosia elatior [1]; flufenacet SC 500 g/l solo 31.25 gai/ha) was 0% and the percent weed control (herbicidal activity, 0-100 scale) at 62.5 g/ha (Ambrosia elatior [1]; flufenacet SC 500 g/l solo 62.5 gai/ha, read-out: % activity) was 0%. The percent weed control (herbicidal activity, 0-100 scale) at 125 g/ha (Ambrosia elatior [1]; flufenacet SC 500 g/l solo 125 gai/ha, read-out: % activity) was 0%, the inhibition at 31.25 g/ha (Poa annua) was 70% and the inhibition at 500000 µg/mL (stock) (Papaver rhoeas) was 0%. It also gave an inhibition at 500000 µg/mL (stock) (Matricaria chamomilla; [3]) of 0%, an inhibition at 500000 µg/mL (stock) (Matricaria chamomilla; [4]) of 0% and an inhibition at 500000 µg/mL (stock) (Matricaria chamomilla; [5]) of 50%. It also gave an inhibition at 62.5 g/ha (Setaria viridis; flufenacet solo 62.5 gai/ha) of 35%, an inhibition at 125 g/ha (Setaria viridis; flufenacet solo 125 gai/ha) of 55% and an inhibition at 500000 µg/mL (stock) (Setaria viridis; [4]) of 35%. It also gave an inhibition at 500000 µg/mL (stock) (Setaria viridis; [5]) of 55%, an inhibition at 31.25 g/ha (Echinocloa crus-galli) of 25% and an inhibition at 62.5 g/ha (Digitaria sanguinalis; flufenacet solo 62.5 gai/ha) of 10%. For the same compound, the inhibition at 125 g/ha (Digitaria sanguinalis; flufenacet solo 125 gai/ha) was 20%, the inhibition at 250 g/ha (Digitaria sanguinalis; flufenacet solo 250 gai/ha) was 65% and the inhibition at 125 g/ha (Bromus sterilis; flufenacet solo 125 gai/ha) was 65%. For the same compound, the inhibition at 250 g/ha (Bromus sterilis; flufenacet solo 250 gai/ha) was 80%, the inhibition at 500000 µg/mL (stock) (Bromus sterilis; [5]) was 65% and the inhibition at 500000 µg/mL (stock) (Bromus sterilis; [6]) was 80%. For the same compound, the inhibition at 31.25 g/ha (Brachiaria decumbens; flufenacet solo 31.25 gai/ha) was 0%, the inhibition at 62.5 g/ha (Brachiaria decumbens; flufenacet solo 62.5 gai/ha) was 0% and the inhibition at 125 g/ha (Brachiaria decumbens; flufenacet solo 125 gai/ha) was 0%. The inhibition at 250 g/ha (Brachiaria decumbens; flufenacet solo 250 gai/ha) was 35%, the inhibition at 500000 µg/mL (stock) (Brachiaria decumbens; [3]) was 0% and the inhibition at 500000 µg/mL (stock) (Brachiaria decumbens; [4]) was 0%. For the same compound, the inhibition at 500000 µg/mL (stock) (Brachiaria decumbens; [5]) was 0%, the inhibition at 500000 µg/mL (stock) (Brachiaria decumbens; [6]) was 35% and the inhibition at 62.5 g/ha (Ambrosia elatior [2]; flufenacet solo 62.5 gai/ha) was 0%. For the same compound, the inhibition at 125 g/ha (Ambrosia elatior [2]; flufenacet solo 125 gai/ha) was 30% and the inhibition at 250 g/ha (Ambrosia elatior [2]; flufenacet solo 250 gai/ha) was 70%.
